This is an account of results in patent US20220356170A1, “SREBP INHIBITOR COMPRISING A THIOPHENE CENTRAL RING” (Capulus Therapeutics, LLC, priority 2019, published 2022).

Each structure is given as a SMILES string. Values after ≈ are worked out from the molar mass of the structure shown. Like-named read-outs stand apart in the source and are kept apart here.

The subject of data set [1] is HepG2 stably expressing LSS-Luciferase transgene (SREBP transcriptional activity). The experiment in a line: Reporter screening assay, SRE-luciferase reporter. It counts as cell-based. The following applies: Homo sapiens, 0% FCS media, 24 hours. The method, then:
The effect of Compound 1 on transcriptional activity SREBP was evaluated using an SRE-luciferase reporter construct.
After 24 hours incubation medium cells were treated with various Lovastatin concentrations (10 μM, 5 μM and 1 μM). After 24 hours treatment plates were covered with aluminum foil and frozen at −80° C. overnight. Plates were thawed to room temperature and Luciferase assay was performed. Cells were seeded in a 96 well plate in 10% FCS DMEM media and incubated for 24 hours. Then, they are switched to 0% FCS Media with Compound 1 or DMSO control for another 24 hours, at which point they are assayed for activity of LSS-reporter.
Reagents for performing Luciferase assay were stored at −20° C. To a tube of lyophilized assay substrate was added 1 mL Substrate Solvent and mixed well. The Substrate tube after reconstitution was covered with aluminum foil so as to keep it protected from light. […]
Using a multi-channel pipette, 100 μL Assay Solution (buffer+substrate) was added directly to each sample well in Plate 1, which was incubated for 30 min (plate was covered with aluminum foil). After 30 min incubation, the plate was read for total luminescence. Each well was read for 2 seconds in a plate luminometer. (Microplate reader Envision Microplate reader from Perkin Elmer). Precaution was taken to incubate plate exactly for 30 min prior to reading on the plate reader. […]

The nature of data set [2]: Kinetic solubility. It counts as physicochemical. Particulars: aqueous buffer, kinetic from dmso stock, pH 7.4 buffer, room temperature, 1.0% DMSO. The method, then: Kinetic Solubility Procedure: A 10 mM stock solution of Compound 1 was prepared in DMSO, then 4 μL of the stock was added to a deep well plate containing 396 μL of pH 7.4 buffer. The sample plate was vortexed at 800 rpm for 24 h on thermomixer at room temperature. The plate was sealed well during the incubation process. The DMSO content in the sample was 1.0%. The concentration of Compound 1 in the final incubation was 100 μM. At the end of the incubation period, the sample plate was centrifuged at 4000 rpm for 10 min and analyzed in LC-UV against a calibration curve (CC).

The nature of data set [3]: Half-life in human liver microsomes. Particulars: NADPH, 37° C., read-out: Human LM: Half life. It counts as in vitro ADME. The method, then: (§1) Half-life Human Microsomes: Compound 1 was evaluated for stability in human liver microsomes. A 10 mM stock solution of Compound 1 was prepared in DMSO and diluted with water: acetonitrile (1:1) to a concentration of 1 mM. A working concentration of 100 μM was prepared by further dilution with water: acetonitrile (1:1). To make the preincubation mixture, 2.5 μL of the diluted Compound 1 was combined with 75 μL of human liver microsomes at 3.33 mg/mL, and 85 μL of 100 mM potassium phosphate buffer, and this mixture pre-incubated for 10 min at 37° C. To make the 60 minute mixture without cofactor, 32.5 μL of the preincubation mixture was combined with 17.5 μL of 100 mM potassium phosphate buffer and incubated for 60 min at 37° C. To make the 0 min sample with cofactor (NADPH), 16.25 μL of the preincubation mixture was combined with 200 μL of acetonitrile containing internal standard and 8.75 μL of cofactor (NADPH). […] To prepare the sample mixture to be evaluated, 25 μL incubation mixture was combined with 200 μL of acetonitrile containing internal standard and vortexed for 5 min at 1200 rpm, then centrifuged for 10 min at 4000 rpm. […] The sample mixture was evaluated by LC-MS/MS using 10 mM ammonium acetate with 0.1% FA as the aqueous mobile phase, and methanol as the organic mobile phase.

Data set [4] in a line: Half-life in rat liver microsomes. Particulars: read-out: Rat LM: Half life. It counts as in vitro ADME. As to the method: as §1, with “C.” for “C. To make the 0 min sample with cofactor (NADPH), 16.25 μL of the preincubation mixture was combined with 200 μL of acetonitrile containing internal standard and 8.75 μL of cofactor (NADPH).”
Half-life Rat and Mouse Microsomes: Compound 1 was evaluated in rat and mouse liver microsomes following a similar procedure as described above for human liver microsomes.

Data set [5] is described as follows: In vitro % Fu, human plasma. The following applies: read-out: In Vitro % Fu (Hu Plasma). It counts as in vitro ADME.
Data set [6] can be described thus: In vivo pharmacokinetics, intravenous. Particulars: male C57 BL/6 mice, dose 2.00 mg/kg (Compound 1), 2.43 mg/kg (Compound 2); for Vd: male, C57 BL/6, mouse, iv. As to the method:
The in vivo pharmacokinetic properties of Compound 1 by both intravenous and oral administration were evaluated in male C57 BL/6 mice. The in vivo pharmacokinetic properties of Compound 2 by both intravenous and oral administration were evaluated in male C57 BL/6 mice for comparison.
Animals were housed in cages with clean bedding. Certified rodent diet was provided. Water was available ad libitum. Environmental controls for the animal room were set to maintain a temperature of 22 to 25° C., humidity of 40-70% RH, and a 12-hour light /12-hour dark cycle. Normal healthy animals certified by the attending veterinarian were selected and acclimatized for minimum three days prior to initiation of study.
Procedure for Blood Withdrawal: Mice were anesthetized using gaseous anesthesia. Blood samples were collected through a capillary, guided in retro-orbital plexus. At each time point, blood samples from 3 mice of each respective group were collected. The blood samples were collected in pre-labeled tubes. 0.2 to 0.3 mL of blood were collected from each mouse. After collection of the blood samples at each time point, the samples were stored on ice prior to centrifugation. Blood samples were centrifuged within 15 minutes to separate plasma. Centrifugations was done at 1540 rcf (5000 rpm) at 4° C. for 10 minutes. The plasma was separated and transferred to pre-labeled micro-centrifuge tubes and promptly frozen at −80±10° C. until bioanalysis was performed. Samples were identified by test item, group, animal number, and collection time point.
To evaluate pharmacokinetic properties of intravenous delivery, nine male C57 BL/6 mice were administered 2.00 mg Compound 1/kg animal weight through the tail vein. The concentration of Compound 1 in the plasma of the animals was evaluated at 0.083, 0.25, 0.5, 1, 2, 4, 8, and 24 hr by taking blood samples from the mice. Compound 2 was similarly administered for comparison.

With `CC(C)(O)c1cc(-c2csc(-c3ccc(C(=O)N4CCC(O)CC4)cc3Cl)c2)ccn1` [Compound 1, (3-chloro-4-(4-(2-(2-hydroxypropan-2-yl)pyridin-4-yl)thiophen-2-yl)phenyl)(4-hydroxypiperidin-1-yl)methanone], the EC50 in data set [1] was 150 nM. The same molecule displayed a kinetic solubility at 24 h in data set [2] of 37 µM (≈ 16.9 µg/mL). Also, in data set [3], the half-life at 1 µM was 1.08 h. Besides, the half-life at 1 µM in data set [4] is 1.68 h. In data set [5], the fraction unbound amounted to 0.026. This molecule also displayed an AUCExtra in data set [6] of 7.27%. In data set [6] (plasma, read-out: Vd), the Vd was determined as 0.73 L/kg. The Vd in data set [6] (plasma, read-out: Vss) worked out at 0.7 L/kg. Besides, in data set [6] (mouse, plasma), the AUC(0-inf) was 25700 ng·h/mL, the AUC(0-t) is 23800 ng·h/mL, the C0 worked out at 4630 ng/mL and the clearance is 1.3 mL/min/kg. For the same molecule, the half-life in data set [6] (mouse, plasma) is 6.5 h. In data set [6] (mouse, plasma, read-out: MRT0-last), the MRT last amounted to 7.07 h.
